From ChEMBL document CHEMBL3885861, “Open TG-GATES”

Organism: Rattus norvegicus
Assay: Open TG-GATES - Regimen: Single
Assay type: toxicity, organism-based, Sprague-Dawley
Set-up: regimen Single, gender Male, age 6 weeks
Conditions: in vivo, po, 300 mg/kg, route gavage, dose level High; for APTT / Bas / Eos / Fbg / Hb / Ht / Lym / MCH / MCHC / MCV / Mono / Neu / PT / Plat / RBC / Ret / WBC: tissue Blood; for KIDNEY_L / KIDNEY_R / KIDNEY_TOTAL: tissue Kidney; for LIVER: tissue Liver; for A/G / ALP / ALT / AST / BUN / CRE / Ca / Cl / DBIL / GLC / IP / K / LDH / Na / PL / RALB / TBIL / TC / TG / TP / gamma-GTP: tissue Plasma

`CCCNC(=O)NS(=O)(=O)c1ccc(Cl)cc1` [CHLORPROPAMIDE] showed a TERMINAL_BW (3 h) of 198 g, an APTT (3 h) of 20.5 s and a Bas (3 h) of 0%. For the same molecule, the Eos (3 h) was 0.6%, the Fbg (3 h) was 309.8 mg/dL and the Hb (3 h) was 14.6 g/dL. The Ht (3 h) was 45.2%, the Lym (3 h) was 74.8% and the MCH (3 h) was 20.8 pg. It also gave an MCHC (3 h) of 32.2%, an MCV (3 h) of 64.6 fL and a Mono (3 h) of 4.6%. It also gave a Neu (3 h) of 18.6%, a PT (3 h) of 15.7 s and a Plat (3 h) of 121.4 x10_4/uL. For the same molecule, the RBC (3 h) was 700.6 x10_4/ul, the Ret (3 h) was 9.7% and the WBC (3 h) was 57 x10_2/uL. The KIDNEY_L (3 h) was 0.8 g, the KIDNEY_R (3 h) was 0.9 g and the KIDNEY_TOTAL (3 h) was 1.7 g. It also gave an LIVER (3 h) of 9.1 g, an A/G (3 h) of 0.9 and an ALP (3 h) of 1404.2 IU/L. For the same molecule, the ALT (3 h) was 46.4 IU/L, the AST (3 h) was 80.8 IU/L and the BUN (3 h) was 12 mg/dL. For the same molecule, the CRE (3 h) was 0.2 mg/dL, the Ca (3 h) was 10.8 mg/dL and the Cl (3 h) was 105.4 meq/L. For the same molecule, the DBIL (3 h) was 0.008 mg/dL, the GLC (3 h) was 147.4 mg/dL and the IP (3 h) was 10.1 mg/dL. The K (3 h) was 3.8 meq/L, the LDH (3 h) was 86 IU/L and the Na (3 h) was 143.8 meq/L. For the same molecule, the PL (3 h) was 126.8 mg/dL, the RALB (3 h) was 2.8 g/dL and the TBIL (3 h) was 0.018 mg/dL. For the same molecule, the TC (3 h) was 71.8 mg/dL, the TG (3 h) was 60 mg/dL and the TP (3 h) was 6 g/dL. For the same molecule, the gamma-GTP (3 h) was 1 IU/L, the TERMINAL_BW (6 h) was 195 g and the APTT (6 h) was 19.7 s. The Bas (6 h) was 0%, the Eos (6 h) was 1% and the Fbg (6 h) was 344.4 mg/dL. The Hb (6 h) was 14.6 g/dL, the Ht (6 h) was 44.7% and the Lym (6 h) was 72.2%. For the same molecule, the MCH (6 h) was 21.7 pg, the MCHC (6 h) was 32.6% and the MCV (6 h) was 66.6 fL. For the same molecule, the Mono (6 h) was 4.2%, the Neu (6 h) was 21.4% and the PT (6 h) was 16.1 s. The Plat (6 h) was 105.8 x10_4/uL, the RBC (6 h) was 670.8 x10_4/ul and the Ret (6 h) was 9%. The WBC (6 h) was 59.6 x10_2/uL, the KIDNEY_L (6 h) was 0.9 g and the KIDNEY_R (6 h) was 0.9 g. The KIDNEY_TOTAL (6 h) was 1.8 g, the LIVER (6 h) was 8 g and the A/G (6 h) was 0.9. It also gave an ALP (6 h) of 1619.2 IU/L, an ALT (6 h) of 45.2 IU/L and an AST (6 h) of 77.4 IU/L. It also gave a BUN (6 h) of 14.8 mg/dL, a CRE (6 h) of 0.2 mg/dL and a Ca (6 h) of 10.9 mg/dL. The Cl (6 h) was 106.2 meq/L, the DBIL (6 h) was 0.004 mg/dL and the GLC (6 h) was 108.4 mg/dL. It also gave an IP (6 h) of 10.2 mg/dL, a K (6 h) of 4.1 meq/L and an LDH (6 h) of 82.6 IU/L. It also gave a Na (6 h) of 143.2 meq/L, a PL (6 h) of 135.8 mg/dL and an RALB (6 h) of 2.8 g/dL. It also gave a TBIL (6 h) of 0.018 mg/dL, a TC (6 h) of 79.8 mg/dL and a TG (6 h) of 46.6 mg/dL. For the same molecule, the TP (6 h) was 6 g/dL, the gamma-GTP (6 h) was 1.2 IU/L and the TERMINAL_BW (9 h) was 193.3 g. The APTT (9 h) was 19.1 s, the Bas (9 h) was 0.4% and the Eos (9 h) was 0.8%. The Fbg (9 h) was 391.6 mg/dL, the Hb (9 h) was 13.4 g/dL and the Ht (9 h) was 41.5%. It also gave a Lym (9 h) of 72.2%, an MCH (9 h) of 21.3 pg and an MCHC (9 h) of 32.3%. It also gave an MCV (9 h) of 65.8 fL, a Mono (9 h) of 3% and a Neu (9 h) of 23.2%. It also gave a PT (9 h) of 16.8 s, a Plat (9 h) of 118.3 x10_4/uL and an RBC (9 h) of 629.8 x10_4/ul. For the same molecule, the Ret (9 h) was 8.9%, the WBC (9 h) was 93.5 x10_2/uL and the KIDNEY_L (9 h) was 0.9 g. The KIDNEY_R (9 h) was 0.9 g, the KIDNEY_TOTAL (9 h) was 1.7 g and the LIVER (9 h) was 8.2 g. For the same molecule, the A/G (9 h) was 0.9, the ALP (9 h) was 1339.6 IU/L and the ALT (9 h) was 46.8 IU/L. It also gave an AST (9 h) of 83.2 IU/L, a BUN (9 h) of 15.4 mg/dL and a CRE (9 h) of 0.2 mg/dL. For the same molecule, the Ca (9 h) was 10.9 mg/dL, the Cl (9 h) was 106.4 meq/L and the DBIL (9 h) was 0.008 mg/dL. For the same molecule, the GLC (9 h) was 96.8 mg/dL, the IP (9 h) was 10.3 mg/dL and the K (9 h) was 3.9 meq/L. It also gave an LDH (9 h) of 85.2 IU/L, a Na (9 h) of 143.6 meq/L and a PL (9 h) of 127.8 mg/dL. For the same molecule, the RALB (9 h) was 2.7 g/dL, the TBIL (9 h) was 0.022 mg/dL and the TC (9 h) was 72.4 mg/dL. The TG (9 h) was 50.6 mg/dL, the TP (9 h) was 5.8 g/dL and the gamma-GTP (9 h) was 1.2 IU/L. The TERMINAL_BW (24 h) was 201.3 g, the APTT (24 h) was 21.1 s and the Bas (24 h) was 0%. It also gave an Eos (24 h) of 1%, a Fbg (24 h) of 308 mg/dL and a Hb (24 h) of 13.2 g/dL. The Ht (24 h) was 41.1%, the Lym (24 h) was 81.2% and the MCH (24 h) was 20.4 pg. It also gave an MCHC (24 h) of 32.1%, an MCV (24 h) of 63.5 fL and a Mono (24 h) of 3%. The Neu (24 h) was 13.6%, the PT (24 h) was 16.2 s and the Plat (24 h) was 114.9 x10_4/uL. The RBC (24 h) was 647.2 x10_4/ul, the Ret (24 h) was 7% and the WBC (24 h) was 88.4 x10_2/uL. For the same molecule, the KIDNEY_L (24 h) was 0.9 g, the KIDNEY_R (24 h) was 0.9 g and the KIDNEY_TOTAL (24 h) was 1.8 g. The LIVER (24 h) was 8.5 g, the A/G (24 h) was 0.9 and the ALP (24 h) was 1944.4 IU/L. For the same molecule, the ALT (24 h) was 46.8 IU/L, the AST (24 h) was 75 IU/L and the BUN (24 h) was 15.4 mg/dL. It also gave a CRE (24 h) of 0.2 mg/dL, a Ca (24 h) of 10.8 mg/dL and a Cl (24 h) of 108 meq/L. It also gave a DBIL (24 h) of 0.008 mg/dL, a GLC (24 h) of 185.4 mg/dL and an IP (24 h) of 8.1 mg/dL. It also gave a K (24 h) of 3.6 meq/L, an LDH (24 h) of 74 IU/L and a Na (24 h) of 142.2 meq/L. For the same molecule, the PL (24 h) was 129.6 mg/dL, the RALB (24 h) was 2.7 g/dL and the TBIL (24 h) was 0.022 mg/dL. For the same molecule, the TC (24 h) was 74.8 mg/dL, the TG (24 h) was 45.4 mg/dL and the TP (24 h) was 5.7 g/dL. The gamma-GTP (24 h) was 1 IU/L.
